How the values were obtained:
human skin = assay: Whitening effect for human skin (UVB-induced tanning); format: in vivo; conditions: 1% topical on UVB-tanned upper arm, 10 weeks, 12 healthy men, colorimeter
Protocol: The whitening effect of the concentrated makgeolli of Example 1 for human skin was tested as follows.
12 healthy men were used as test subjects. An opaque tape with a hole of 1.5 cm diameter was attached on the upper arm of the test subject and UVB of about 1.5-2 times the minimal erythemal dose was irradiated to induce tanning.
After the UV radiation, 1% concentrated makgeolli of Example 1 (in 7:3 1,3-butylene glycol:ethanol solvent), 1% hydroquinone or 1% solvent (vehicle, negative control) was applied. […] The skin color was measured every week using the colorimeter CR2002 (Minolta, Japan).
The difference in skin color (ΔL*) at the initiation of application and after the completion of test was calculated according to Equation 2. Whitening effect was determined from the ΔL* of the sample-applied portion and the control portion. A ΔL* value of about 2 can be evaluated as distinct whitening effect and one of about 1.5 can be evaluated as positive whitening effect.
ΔL*=L*after the completion of test−L*at the initiation of application Equation 2

[1] = system: Mouse melanocytes (Mel-Ab cells); assay: Melanin production inhibiting effect using mouse melanocytes; format: cell-based; conditions: 10 ppm, 3 consecutive days, absorbance at 400 nm
Protocol: Mouse melanocytes (Mel-Ab cells) derived from C57BL/6 mouse (Dooley, T. P. et al, Skin Pharmacol., 7, pp. 188-200) were cultured under the condition of 37° C. and 5% CO2 in DMEM containing 10% FBS, 100 nM 2-O-tetradecanoyphorbol-13-acetate and 1 nM cholera toxin. The cultured Mel-Ab cells were detached with 0.25% trypsin-EDTA and cultured in a 24-well plate, with 10^5 cells/well. From day 2, hydroquinone or the concentrated makgeolli of Example 1 (10 ppm each) was added for 3 consecutive days as test sample. Hydroquinone was used as positive control. Subsequently, after removing the medium and washing with PBS, the cells were suspended in 1 N sodium hydroxide and absorbance was measured at 400 nm. Based on the measurement result, melanin production inhibiting effect was calculated according to Equation 1.
Melanin production inhibiting effect (%)=100−(Absorbance of test sample/Absorbance of control×100) Equation 1

[2] = system: Human keratinocyte HaCaT cell line; assay: ROS production inhibiting effect using fluorescent substances (DCFH-DA, UVB); format: cell-based; conditions: light or radiation study, HaCaT cells, UVB 30 mJ/cm^2, DCF fluorescence, read-out: ROS production inhibiting effect (% of control)
Protocol: Human keratinocyte HaCaT cell line was used. The cells were seeded on a 96-well black plate for fluorescence measurement, with 2.0×10^4 cells per well, cultured under the condition of 37° C. and 5% CO2 for 1 day using Dulbecco's modified Eagle's medium (DMEM, FBS 10%) containing penicillin/streptomycin, and then treated with the test sample. The cells were cultured under the condition of 37°C. and 5% CO2 for 1 day using serum (FBS)-free DMEM containing penicillin/streptomycin treated with the test sample as described in Table 2. After culturing for 24 hours, after washing with HEPES-buffered control salt solution (HCSS) to remove the remaining medium and adding 20 μM 2′,7′-dichlorodihydro-fluorescein diacetate (DCFH-DA, Molecular Probes, Inc., 100 μL), the cells were cultured under the condition of 37° C. and 5% CO2 for 20 minutes and then washed with HCSS. Then, after adding HCSS (100 μL) treated with the samples of different concentrations, the fluorescence intensity of the ROS, oxidized dichlorofluorescein (DCF), was measured using a fluorescence plate reader (Ex=485 nm, Em=530 nm). Then, after immediately and 3 hours after irradiation of UVB (30 mJ/cm^2), fluorescence intensity was measured using the fluorescence plate reader (Ex=485 nm, Em=530 nm). Trolox was used as control.

[3] = Antioxidant effect (DPPH test); format: biochemical; conditions: 100 μM DPPH, 37° C., 30 minutes, absorbance at 540 nm
Protocol: The antioxidant effect was determined as the concentration at which absorbance is decreased to 50% of control (IC50). 100 μM DPPH solution (in ethanol, 190 μL) was mixed with the concentrated makgeolli prepared in Example 1 or control (10 μL each). The resulting mixture was kept at 37° C. for 30 minutes and absorbance was measured at 540 nm. Trolox, which is widely used as synthetic antioxidant, was used as the control.

In the case of `Oc1ccc(O)cc1` [Hydroquinone], the “Change in skin color (ΔL*)” value (human skin) is reported as 1.90 ± 0.11 and the “Melanin production inhibiting effect (%)” value [1] is reported as 41.1%.
For `Cc1c(C)c2c(c(C)c1O)CCC(C)(C(=O)O)O2` (stereo not shown) [Trolox], the activity at 1 ppm ([2]; 1 ppm) was 76.9%, the activity at 10 ppm ([2]; 10 ppm) was 74.6% and the activity at 25 ppm ([2]; 25 ppm) was 73.3%. The activity at 50 ppm ([2]; 50 ppm) was 58.5% and the “IC50 (concentration at which absorbance is decreased to 50% of control)” value [3] was 8.64 ppm.

— patent US20120134946A1, “COMPOSITION HAVING ANTIOXIDANT AND WHITENING EFFECTS CONTAINING A CONCENTRATE OF KOREAN RICE WINE” (AMOREPACIFIC CORPORATION, priority 2009, published 2012)
